How the values were obtained:
[1] = Oral bioavailability in beagle dog at 5.2 mg/kg by LC-MS/MS analysis; type: ADME, organism-based, Canis lupus familiaris; settings: in vivo
[2] = Oral bioavailability in Sprague-Dawley rat at 4.3 mg/kg by LC-MS/MS analysis; type: ADME, organism-based; settings: in vivo
[3] = Oral bioavailability in CD1 mouse at 13.4 mg/kg by LC-MS/MS analysis; type: ADME, organism-based; settings: in vivo
[4] = AUC (0 to infinity) in beagle dog at 5.2 mg/kg, po by LC-MS/MS analysis; type: ADME, organism-based, Canis lupus familiaris; parameters: time infinity, dose 5.2 mg/kg, route oral; settings: plasma
[5] = AUC (0 to infinity) in Sprague-Dawley rat at 4.3 mg/kg, po by LC-MS/MS analysis; type: ADME, organism-based; parameters: time infinity, dose 4.3 mg/kg, route oral; settings: plasma
[6] = AUC (0 to infinity) in CD1 mouse at 13.4 mg/kg, po by LC-MS/MS analysis; type: ADME, organism-based; parameters: time infinity, dose 13.4 mg/kg, route oral; settings: plasma
[7] = Half life in beagle dog at 2.9 mg/kg, iv by LC-MS/MS analysis; type: ADME, organism-based, Canis lupus familiaris; parameters: dose 2.9 mg/kg, route intravenous; settings: in vivo
[8] = Half life in Sprague-Dawley rat at 2.2 mg/kg, iv by LC-MS/MS analysis; type: ADME, organism-based; parameters: dose 2.2 mg/kg, route intravenous; settings: in vivo
[9] = Half life in CD1 mouse at 2 mg/kg, iv by LC-MS/MS analysis; type: ADME, organism-based; parameters: dose 2 mg/kg, route intravenous; settings: in vivo
[10] = Volume of distribution at steady state in beagle dog at 2.9 mg/kg, iv by LC-MS/MS analysis; type: ADME, organism-based, Canis lupus familiaris; parameters: dose 2.9 mg/kg, route intravenous; settings: in vivo, read-out: Vdss
[11] = Volume of distribution at steady state in Sprague-Dawley rat at 2.2 mg/kg, iv by LC-MS/MS analysis; type: ADME, organism-based; parameters: dose 2.2 mg/kg, route intravenous; settings: in vivo, read-out: Vdss
[12] = Volume of distribution at steady state in CD1 mouse at 2 mg/kg, iv by LC-MS/MS analysis; type: ADME, organism-based; parameters: dose 2 mg/kg, route intravenous; settings: in vivo, read-out: Vdss
[13] = Blood clearance in beagle dog at 2.9 mg/kg, iv by LC-MS/MS analysis; type: ADME, organism-based, Canis lupus familiaris; parameters: dose 2.9 mg/kg, route intravenous; settings: whole blood
[14] = Blood clearance in CD1 mouse at 2 mg/kg, iv by LC-MS/MS analysis; type: ADME, organism-based; parameters: dose 2 mg/kg, route intravenous; settings: whole blood
[15] = AUC (0 to infinity) in beagle dog at 2.9 mg/kg, iv by LC-MS/MS analysis; type: ADME, organism-based, Canis lupus familiaris; parameters: time infinity, dose 2.9 mg/kg, route intravenous; settings: plasma
[16] = AUC (0 to infinity) in Sprague-Dawley rat at 2.2 mg/kg, iv by LC-MS/MS analysis; type: ADME, organism-based; parameters: time infinity, dose 2.2 mg/kg, route intravenous; settings: plasma
[17] = AUC (0 to infinity) in CD1 mouse at 2 mg/kg, iv by LC-MS/MS analysis; type: ADME, organism-based; parameters: time infinity, dose 2 mg/kg, route intravenous; settings: plasma
eIF-2-alpha kinase GCN2 = eIF-2-alpha kinase GCN2 (Homo sapiens, UniProt Q9P2K8); assay: Inhibition of GCN2 (unknown origin) assessed as EIF2AK4 phosphorylation
eIF-2-alpha kinase GCN2, sequence (Q9P2K8 whole entry): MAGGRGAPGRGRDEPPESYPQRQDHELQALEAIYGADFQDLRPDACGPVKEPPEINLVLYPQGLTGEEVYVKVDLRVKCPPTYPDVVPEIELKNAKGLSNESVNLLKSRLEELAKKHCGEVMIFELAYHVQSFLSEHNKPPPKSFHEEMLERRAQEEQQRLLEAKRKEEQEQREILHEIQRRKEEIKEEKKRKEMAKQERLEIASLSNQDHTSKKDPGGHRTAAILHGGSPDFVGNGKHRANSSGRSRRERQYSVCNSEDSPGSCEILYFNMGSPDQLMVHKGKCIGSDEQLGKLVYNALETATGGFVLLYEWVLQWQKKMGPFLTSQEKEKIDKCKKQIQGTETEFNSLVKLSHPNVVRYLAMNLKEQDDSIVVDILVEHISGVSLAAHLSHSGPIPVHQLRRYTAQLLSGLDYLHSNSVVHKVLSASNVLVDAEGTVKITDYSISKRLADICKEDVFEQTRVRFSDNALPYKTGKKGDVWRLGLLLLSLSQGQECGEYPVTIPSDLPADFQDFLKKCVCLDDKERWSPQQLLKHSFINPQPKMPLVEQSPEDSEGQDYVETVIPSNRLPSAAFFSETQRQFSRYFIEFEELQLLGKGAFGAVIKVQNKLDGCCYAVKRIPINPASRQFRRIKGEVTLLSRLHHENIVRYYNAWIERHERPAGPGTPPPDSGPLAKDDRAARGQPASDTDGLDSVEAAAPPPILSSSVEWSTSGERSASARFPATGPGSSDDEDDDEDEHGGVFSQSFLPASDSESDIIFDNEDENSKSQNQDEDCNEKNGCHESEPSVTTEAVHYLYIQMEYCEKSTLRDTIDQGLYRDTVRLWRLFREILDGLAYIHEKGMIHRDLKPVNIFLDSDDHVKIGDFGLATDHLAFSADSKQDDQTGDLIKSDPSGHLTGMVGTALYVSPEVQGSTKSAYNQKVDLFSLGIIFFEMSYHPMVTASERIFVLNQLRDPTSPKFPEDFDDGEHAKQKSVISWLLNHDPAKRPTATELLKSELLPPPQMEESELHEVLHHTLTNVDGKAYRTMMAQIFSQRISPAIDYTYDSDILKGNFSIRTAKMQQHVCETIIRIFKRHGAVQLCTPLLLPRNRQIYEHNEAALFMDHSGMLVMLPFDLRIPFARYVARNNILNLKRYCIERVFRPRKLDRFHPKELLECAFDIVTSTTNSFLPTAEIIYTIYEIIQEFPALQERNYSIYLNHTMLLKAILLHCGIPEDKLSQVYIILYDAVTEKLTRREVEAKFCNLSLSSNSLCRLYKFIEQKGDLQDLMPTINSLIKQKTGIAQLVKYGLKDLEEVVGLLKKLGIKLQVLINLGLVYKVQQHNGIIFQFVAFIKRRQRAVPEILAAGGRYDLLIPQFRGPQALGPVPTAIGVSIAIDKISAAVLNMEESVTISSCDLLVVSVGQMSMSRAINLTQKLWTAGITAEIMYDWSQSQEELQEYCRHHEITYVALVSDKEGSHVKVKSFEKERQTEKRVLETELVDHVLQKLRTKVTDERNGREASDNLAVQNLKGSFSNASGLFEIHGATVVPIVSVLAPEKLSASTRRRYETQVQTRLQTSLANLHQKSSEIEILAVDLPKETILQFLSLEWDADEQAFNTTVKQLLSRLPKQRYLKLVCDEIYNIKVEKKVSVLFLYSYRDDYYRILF

[18] = target: Interferon-induced, double-stranded RNA-activated protein kinase (Homo sapiens, UniProt P19525); assay: Inhibition of PKR (unknown origin) assessed as EIF2AK2 phosphorylation
Interferon-induced, double-stranded RNA-activated protein kinase, sequence (P19525 whole entry): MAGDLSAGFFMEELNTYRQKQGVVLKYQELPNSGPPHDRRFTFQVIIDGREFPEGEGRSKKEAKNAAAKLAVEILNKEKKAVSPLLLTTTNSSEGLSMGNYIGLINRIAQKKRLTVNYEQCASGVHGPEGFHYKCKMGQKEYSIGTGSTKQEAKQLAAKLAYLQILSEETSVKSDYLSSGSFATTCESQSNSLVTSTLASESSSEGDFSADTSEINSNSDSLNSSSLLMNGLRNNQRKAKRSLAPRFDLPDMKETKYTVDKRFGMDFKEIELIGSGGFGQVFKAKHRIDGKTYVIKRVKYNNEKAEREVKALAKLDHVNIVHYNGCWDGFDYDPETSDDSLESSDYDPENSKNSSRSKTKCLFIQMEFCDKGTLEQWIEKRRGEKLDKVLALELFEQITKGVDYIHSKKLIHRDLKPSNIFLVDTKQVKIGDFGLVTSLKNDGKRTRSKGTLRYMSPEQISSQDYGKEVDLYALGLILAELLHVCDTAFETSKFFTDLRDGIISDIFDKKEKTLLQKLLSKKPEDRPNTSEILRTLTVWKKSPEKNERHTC

[19] = target: Eukaryotic translation initiation factor 2-alpha kinase 1 (Homo sapiens, UniProt Q9BQI3); assay: Inhibition of HRI (unknown origin) assessed as EIF2AK1 phosphorylation
Eukaryotic translation initiation factor 2-alpha kinase 1, sequence (Q9BQI3 whole entry): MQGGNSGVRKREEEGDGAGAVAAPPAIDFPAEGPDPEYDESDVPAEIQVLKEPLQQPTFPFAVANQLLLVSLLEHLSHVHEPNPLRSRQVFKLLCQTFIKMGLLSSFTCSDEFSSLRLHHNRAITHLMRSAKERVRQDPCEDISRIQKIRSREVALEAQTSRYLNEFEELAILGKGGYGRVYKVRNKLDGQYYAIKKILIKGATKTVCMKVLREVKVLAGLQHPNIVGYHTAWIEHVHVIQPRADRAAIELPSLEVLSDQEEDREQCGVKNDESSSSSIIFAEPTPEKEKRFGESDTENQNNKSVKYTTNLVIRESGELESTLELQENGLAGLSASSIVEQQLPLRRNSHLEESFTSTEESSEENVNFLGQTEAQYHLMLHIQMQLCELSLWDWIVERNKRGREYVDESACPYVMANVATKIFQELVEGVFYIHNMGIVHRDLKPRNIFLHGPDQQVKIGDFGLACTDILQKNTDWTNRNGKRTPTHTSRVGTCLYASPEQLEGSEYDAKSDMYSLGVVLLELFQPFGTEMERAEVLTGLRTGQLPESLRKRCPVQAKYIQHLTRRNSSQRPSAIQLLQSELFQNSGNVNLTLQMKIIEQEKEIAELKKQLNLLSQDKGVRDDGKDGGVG

Cytochrome P450 2C8 = target: T1, Cytochrome P450 2C8 (Homo sapiens, UniProt P10632); assay: Inhibition of CYP2C8 in human liver microsomes using paclitaxel as substrate after 5 to 60 mins by LC-MS/MS analysis; type: ADME, Microsome
T1 sequence (P10632 whole entry): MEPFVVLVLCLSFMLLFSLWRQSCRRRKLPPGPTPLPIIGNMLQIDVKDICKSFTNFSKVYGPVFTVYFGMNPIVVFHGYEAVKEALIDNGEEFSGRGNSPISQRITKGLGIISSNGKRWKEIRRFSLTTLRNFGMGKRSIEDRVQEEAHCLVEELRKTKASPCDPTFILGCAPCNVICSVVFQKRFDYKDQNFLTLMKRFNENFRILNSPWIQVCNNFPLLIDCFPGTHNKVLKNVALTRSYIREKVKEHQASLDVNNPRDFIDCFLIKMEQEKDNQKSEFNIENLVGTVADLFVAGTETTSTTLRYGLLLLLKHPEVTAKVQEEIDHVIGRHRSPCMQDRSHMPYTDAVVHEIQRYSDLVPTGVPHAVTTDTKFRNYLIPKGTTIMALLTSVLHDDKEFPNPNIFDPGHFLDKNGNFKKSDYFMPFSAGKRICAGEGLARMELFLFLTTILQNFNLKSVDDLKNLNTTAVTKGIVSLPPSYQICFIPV

Cytochrome P450 2D6 = Cytochrome P450 2D6 (Homo sapiens, UniProt P10635); assay: Inhibition of CYP2D6 in human liver microsomes using bufuralol as substrate after 5 to 60 mins by LC-MS/MS analysis; type: ADME, Microsome
Cytochrome P450 2D6, sequence (P10635 whole entry): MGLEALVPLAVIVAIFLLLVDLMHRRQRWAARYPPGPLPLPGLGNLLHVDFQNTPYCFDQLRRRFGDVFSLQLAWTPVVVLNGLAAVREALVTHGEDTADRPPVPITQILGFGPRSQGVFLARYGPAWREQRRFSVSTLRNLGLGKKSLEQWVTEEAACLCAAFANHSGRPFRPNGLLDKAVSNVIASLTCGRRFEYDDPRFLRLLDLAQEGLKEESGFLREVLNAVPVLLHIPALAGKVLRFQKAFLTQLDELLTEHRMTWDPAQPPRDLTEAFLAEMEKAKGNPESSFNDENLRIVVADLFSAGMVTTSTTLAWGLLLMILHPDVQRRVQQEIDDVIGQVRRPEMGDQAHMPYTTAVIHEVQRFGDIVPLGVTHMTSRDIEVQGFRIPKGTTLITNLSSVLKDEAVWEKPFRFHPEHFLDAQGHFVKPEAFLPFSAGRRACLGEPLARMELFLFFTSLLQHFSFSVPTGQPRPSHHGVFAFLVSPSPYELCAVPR

Cytochrome P450 2C19 = Cytochrome P450 2C19 (Homo sapiens, UniProt P33261); assay: Inhibition of CYP2C19 in human liver microsomes using mephenytoin as substrate after 5 to 60 mins by LC-MS/MS analysis; type: ADME, Microsome
Cytochrome P450 2C19, sequence (P33261 whole entry): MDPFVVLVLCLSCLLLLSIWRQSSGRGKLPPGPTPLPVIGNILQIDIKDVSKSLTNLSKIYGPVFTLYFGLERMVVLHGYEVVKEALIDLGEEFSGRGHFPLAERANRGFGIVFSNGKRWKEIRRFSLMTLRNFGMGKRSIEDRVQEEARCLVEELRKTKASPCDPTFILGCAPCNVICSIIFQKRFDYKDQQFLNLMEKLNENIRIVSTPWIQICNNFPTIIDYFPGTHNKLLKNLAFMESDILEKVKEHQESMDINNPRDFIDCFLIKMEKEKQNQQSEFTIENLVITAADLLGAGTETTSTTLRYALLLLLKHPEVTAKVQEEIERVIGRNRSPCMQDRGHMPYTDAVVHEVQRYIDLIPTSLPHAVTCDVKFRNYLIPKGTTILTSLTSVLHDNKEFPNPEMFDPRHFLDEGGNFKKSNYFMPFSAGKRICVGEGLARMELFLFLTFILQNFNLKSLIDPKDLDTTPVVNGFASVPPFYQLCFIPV

Cytochrome P450 2C9 = Cytochrome P450 2C9 (Homo sapiens, UniProt P11712); assay: Inhibition of CYP2C9 in human liver microsomes using diclofenac as substrate after 5 to 60 mins by LC-MS/MS analysis; type: ADME, Microsome
Cytochrome P450 2C9, sequence (P11712 whole entry): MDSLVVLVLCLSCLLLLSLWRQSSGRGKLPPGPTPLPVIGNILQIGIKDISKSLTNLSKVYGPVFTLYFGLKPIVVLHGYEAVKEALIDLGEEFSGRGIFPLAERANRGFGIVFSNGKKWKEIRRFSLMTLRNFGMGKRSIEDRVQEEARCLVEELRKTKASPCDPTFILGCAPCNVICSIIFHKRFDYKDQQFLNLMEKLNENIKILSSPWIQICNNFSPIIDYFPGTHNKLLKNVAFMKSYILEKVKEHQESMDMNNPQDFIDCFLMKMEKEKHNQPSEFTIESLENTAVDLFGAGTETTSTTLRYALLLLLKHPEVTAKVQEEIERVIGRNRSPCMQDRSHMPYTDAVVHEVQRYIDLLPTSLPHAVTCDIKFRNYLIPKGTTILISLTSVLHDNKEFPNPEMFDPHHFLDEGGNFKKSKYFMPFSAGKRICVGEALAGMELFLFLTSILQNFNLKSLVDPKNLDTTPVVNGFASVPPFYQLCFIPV

Cytochrome P450 1A2 = target: T2, Cytochrome P450 1A2 (Homo sapiens, UniProt P05177); assay: Inhibition of CYP1A2 in human liver microsomes using phenacetin as substrate after 5 to 60 mins by LC-MS/MS analysis; type: ADME, Microsome
T2 sequence (P05177 whole entry): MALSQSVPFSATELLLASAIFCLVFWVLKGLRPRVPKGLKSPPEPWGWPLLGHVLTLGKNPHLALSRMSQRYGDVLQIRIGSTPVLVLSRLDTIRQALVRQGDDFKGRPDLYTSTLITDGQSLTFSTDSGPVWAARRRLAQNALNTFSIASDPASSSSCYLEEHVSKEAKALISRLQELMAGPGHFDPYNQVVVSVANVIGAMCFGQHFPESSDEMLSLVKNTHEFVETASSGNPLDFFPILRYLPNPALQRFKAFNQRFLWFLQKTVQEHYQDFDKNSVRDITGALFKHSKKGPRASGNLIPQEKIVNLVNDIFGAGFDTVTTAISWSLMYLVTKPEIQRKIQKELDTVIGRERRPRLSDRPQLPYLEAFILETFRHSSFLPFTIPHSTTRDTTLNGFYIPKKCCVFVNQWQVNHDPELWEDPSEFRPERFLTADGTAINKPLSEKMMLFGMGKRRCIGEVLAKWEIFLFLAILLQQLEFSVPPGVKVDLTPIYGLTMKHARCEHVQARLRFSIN

[20] = Blood clearance in Sprague-Dawley rat at 2.2 mg/kg, iv by LC-MS/MS analysis; type: ADME, organism-based; parameters: dose 2.2 mg/kg, route intravenous; settings: whole blood
[21] = target: T3, Eukaryotic translation initiation factor 2-alpha kinase 3 (Homo sapiens, UniProt Q9NZJ5); assay: Inhibition of thapsigargin-induced autophosphorylation of PERK in human A549 cells preincubated for 1 hr followed by thapsigargin-induction measured after 1 hr by Western blotting analysis; type: cell-based
T3 sequence (Q9NZJ5 whole entry): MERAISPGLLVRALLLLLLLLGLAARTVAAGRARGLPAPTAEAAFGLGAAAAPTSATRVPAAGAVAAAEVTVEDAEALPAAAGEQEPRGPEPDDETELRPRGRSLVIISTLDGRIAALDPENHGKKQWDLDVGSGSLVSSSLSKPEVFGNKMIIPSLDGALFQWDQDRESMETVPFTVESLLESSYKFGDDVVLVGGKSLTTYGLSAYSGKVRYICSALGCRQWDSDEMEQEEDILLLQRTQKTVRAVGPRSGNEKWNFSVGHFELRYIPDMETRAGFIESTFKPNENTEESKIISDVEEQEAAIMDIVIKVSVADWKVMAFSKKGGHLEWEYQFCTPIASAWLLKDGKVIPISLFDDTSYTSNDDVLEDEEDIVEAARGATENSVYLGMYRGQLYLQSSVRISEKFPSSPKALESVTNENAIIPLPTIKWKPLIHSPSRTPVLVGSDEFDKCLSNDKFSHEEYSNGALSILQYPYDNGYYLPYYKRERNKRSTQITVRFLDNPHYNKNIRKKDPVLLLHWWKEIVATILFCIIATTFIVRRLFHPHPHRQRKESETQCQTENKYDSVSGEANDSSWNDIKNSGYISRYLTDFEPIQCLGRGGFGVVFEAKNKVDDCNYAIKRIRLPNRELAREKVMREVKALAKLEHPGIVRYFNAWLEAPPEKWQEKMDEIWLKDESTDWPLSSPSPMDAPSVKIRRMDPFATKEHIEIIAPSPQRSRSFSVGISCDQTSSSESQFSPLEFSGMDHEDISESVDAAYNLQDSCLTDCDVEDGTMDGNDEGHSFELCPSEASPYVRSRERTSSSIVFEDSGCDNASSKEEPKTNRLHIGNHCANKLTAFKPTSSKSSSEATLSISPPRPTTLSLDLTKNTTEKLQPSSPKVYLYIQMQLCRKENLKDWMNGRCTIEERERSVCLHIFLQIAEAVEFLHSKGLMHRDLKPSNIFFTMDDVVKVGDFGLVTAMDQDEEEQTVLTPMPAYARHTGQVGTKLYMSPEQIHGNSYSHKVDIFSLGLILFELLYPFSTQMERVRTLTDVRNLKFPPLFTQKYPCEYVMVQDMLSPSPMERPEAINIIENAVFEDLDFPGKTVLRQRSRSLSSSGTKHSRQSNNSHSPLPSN

[22] = target: T3, Eukaryotic translation initiation factor 2-alpha kinase 3; assay: Inhibition of GST-tagged PERK cytoplasmic domain (536 to 1116) (unknown origin) assessed as biotinylated His6-tagged EIF2alpha phosphorylation preincubated for 30 mins followed by ATP and eIF2alpha addition measured after 1 hr by HTRF assay
Cytochrome P450 3A4 [23] = target: T4, Cytochrome P450 3A4 (Homo sapiens, UniProt P08684); assay: Inhibition of CYP3A4 in human liver microsomes using nifedipine as substrate after 5 to 60 mins by LC-MS/MS analysis; type: ADME, Microsome
T4 sequence (P08684 whole entry): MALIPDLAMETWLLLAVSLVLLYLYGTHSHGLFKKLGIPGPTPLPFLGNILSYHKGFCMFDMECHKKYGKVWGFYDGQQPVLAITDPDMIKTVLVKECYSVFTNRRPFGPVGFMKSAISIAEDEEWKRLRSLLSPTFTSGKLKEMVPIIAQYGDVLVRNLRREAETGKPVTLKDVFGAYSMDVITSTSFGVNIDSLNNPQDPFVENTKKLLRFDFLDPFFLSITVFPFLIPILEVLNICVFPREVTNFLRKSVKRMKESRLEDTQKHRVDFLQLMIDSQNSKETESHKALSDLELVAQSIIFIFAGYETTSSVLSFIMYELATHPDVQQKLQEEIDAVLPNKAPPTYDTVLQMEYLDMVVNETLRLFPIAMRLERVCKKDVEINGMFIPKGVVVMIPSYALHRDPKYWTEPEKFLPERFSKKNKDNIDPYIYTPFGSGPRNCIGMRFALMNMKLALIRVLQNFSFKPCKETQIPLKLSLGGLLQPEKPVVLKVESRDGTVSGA

Cytochrome P450 3A4 [24] = target: T4, Cytochrome P450 3A4; assay: Inhibition of CYP3A4 in human liver microsomes using midazolam as substrate after 5 to 60 mins by LC-MS/MS analysis; type: ADME, Microsome

`Cc1cccc(CC(=O)N2CCc3c2ccc(-c2cn(C)c4ncnc(N)c24)c3F)n1` gave a bioavailability [1] of 100%, a bioavailability [2] of 100% and a bioavailability [3] of 52%. For the same compound, the AUC(0-inf) [4] was 6210 ng·h/mL, the AUC(0-inf) [5] was 8020 ng·h/mL and the AUC(0-inf) [6] was 13400 ng·h/mL. It also gave a half-life [7] of 3.1 h, a half-life [8] of 1.4 h and a half-life [9] of 1.25 h. For the same compound, the Vd [10] was 2.8 L/kg, the Vd [11] was 0.6 L/kg and the Vd [12] was 0.72 L/kg. The clearance [13] was 15.5 mL/min/kg, the clearance [14] was 10.5 mL/min/kg and the AUC(0-inf) [15] was 3130 ng·h/mL. The AUC(0-inf) [16] was 3920 ng·h/mL, the AUC(0-inf) [17] was 3270 ng·h/mL and the IC50 (eIF-2-alpha kinase GCN2) was 3390 nM. The IC50 [18] was 905 nM, the IC50 [19] was 460 nM and the IC50 (Cytochrome P450 2C8) was > 25000 nM. For the same compound, the IC50 (Cytochrome P450 2D6) was > 25000 nM, the IC50 (Cytochrome P450 2C19) was > 25000 nM and the IC50 (Cytochrome P450 2C9) was 24700 nM. The IC50 (Cytochrome P450 1A2) was > 25000 nM, the clearance [20] was 9.5 mL/min/kg and the IC50 [21] was 30 nM. For the same compound, the IC50 [22] was 0.8 nM.

With `Cn1cc(-c2ccc3c(c2)CCN3C(=O)Cc2cccc(C(F)(F)F)n2)c2c(N)ncnc21` the clearance [20] was 12.8 mL/min/kg, the IC50 [21] was 30 nM and the IC50 [22] was 0.5 nM.

In the case of `Cc1cc(C)n(CC(=O)N2CCc3cc(-c4cn(C)c5ncnc(N)c45)ccc32)n1`, the clearance [20] is reported as 2.8 mL/min/kg, the IC50 [21] is reported as 100 nM and the IC50 [22] is reported as 1.9 nM.

Compound `Cc1cc(C)n(CC(=O)N2CCc3c2ccc(-c2cn(C)c4ncnc(N)c24)c3F)n1` has an IC50 [18] of 99 nM, an IC50 [19] of 61 nM and an IC50 (Cytochrome P450 3A4 [23]) of 20500 nM. For the same compound, the IC50 (Cytochrome P450 2C8) was > 25000 nM, the IC50 (Cytochrome P450 3A4 [24]) was > 25000 nM and the IC50 (Cytochrome P450 2D6) was > 25000 nM. For the same compound, the IC50 (Cytochrome P450 2C19) was > 25000 nM, the IC50 (Cytochrome P450 2C9) was > 25000 nM and the IC50 (Cytochrome P450 1A2) was > 25000 nM. It also gave a clearance [20] of 1.9 mL/min/kg, an IC50 [21] of 30 nM and an IC50 [22] of 2.7 nM.

Compound `Cc1cccc(CC(=O)N2CCc3cc(-c4cn(C)c5ncnc(N)c45)ccc32)n1` has a clearance [20] of 10.5 mL/min/kg, an IC50 [21] of 100 nM and an IC50 [22] of 2.5 nM.

In the case of `Cc1ccnn1CC(=O)N1CCc2cc(-c3cn(C)c4ncnc(N)c34)ccc21`, the IC50 [22] is reported as 16.6 nM.

— ChEMBL document CHEMBL2440009, “Discovery of GSK2656157: An Optimized PERK Inhibitor Selected for Preclinical Development” (ACS Med Chem Lett, 2013)
